“Also recorded” adds a separate entry of the source.

The results in this text go back to patent US10716797B2, “Steroid alkaloids and compositions and kits thereof” (priority 2013, dated 2020).

Data set [1] deals with S. aureus SCV strain NewbouldΔhemB. The data set can be described thus: MIC by microdilution against SCV strain. Format: cell-based, Staphylococcus aureus. The procedure: Method. The minimal inhibitory concentrations (MICs), (i.e. lowest concentration of an antimicrobial that will inhibit the visible growth of a microorganism after incubation), of test compounds were determined against the normal or SCV strains of bacterial species from the Firmicutes phylum. Briefly, MICs were determined using the microdilution method in 96-well plates (Clinical and Laboratory Standards Institute (CLSI), 2011). Bacteria were inoculated at ˜10^5-10^6 CFU/mL and incubated at 35° C. for 20 h (normal strains) or 48 h (SCVs) in brain heart infusion (BHI) broth in order to allow SCVs to reach maximal growth as previously described (Mitchell et al., 2012). Then OD595 nm was read on a microplate reader. […] In this example the range of compound concentrations tested was 0.03 to 64 μg/ml using doubling increments. Strain Staphylococcus aureus NewbouldΔhemB (hemB) was also used in the experiments and is a laboratory-derived stable SCV created by the insertion of the macrolide resistance gene ermA in the hemB gene of this strain to create the SCV phenotype (defective electron transport chain and respiratory deficiency) through inactivation of hemin biosynthesis (Brouillette et al., 2004). […]

Data set [2] has as its system Listeria monocytogenes (strain ATCC 13932). Kind of data set: Time-kill experiments, Listeria monocytogenes. It is filed as cell-based. The procedure:
Time-kill experiments were performed in order to determine whether the effect of test compounds or the combination with an aminoglycoside on Listeria monocytogenes (strain ATCC 13932) is bacteriostatic (prevents growth) or bactericidal (kills cells).
At several time points during growth at 35° C. (225 RPM), bacteria were sampled, serially diluted and plated on Brain Hearth Infusion agar (BHIA) for colony-forming unit (CFU) determinations (i.e., viable bacterial counts). Plates were incubated for 24 h at 35° C. It represents the results of three independent experiments.

The subject of data set [3] is S. aureus SCV strain hemB. Kind of data set: Murine lung infection (pneumonia) model. Format: in vivo, mouse. The conditions noted are these: mice; intratracheal, 4 h post-infection; lungs 24 h post-infection; hydrochloride. Here is the method: Compound efficacy in a lung infection (pneumonia) model was evaluated as follow (Ragle et al, 2010; Mitchell et al, 2013): Mice (36) were challenged with an intra-tracheal injection of S. aureus SCV strain hemB (10^7 CFU) (10^7 CFU) (normal S. aureus could also have been used, mixed or not with P. aeruginosa for a co-infection). […] More particularly, 11 mice were untreated (Unrteated); 4 mice were treated with 10 μg of tomatidine (TO (10)); 4 mice were treated with 100 μg of tomatidine (TO (100)); 3 mice were treated with 10 μg of compound 14 (Compound 14 (10)); 8 mice were treated with 100 μg of compound 14 (Compound 14 (100)); and 6 mice were treated with 200 μg of compound 14 (Compound 14 (200)). Mice were euthanized 24 h post-infection. The lungs were recovered, homogenized, and bacterial CFU per g of tissue were determined by plating appropriate dilutions on Brain Hearth Infusion agar media (other media such as for example, mannitol salt agar for S. aureus or cetrimide plates for P. aeruginosa could be used).
Each dot represents the CFU per g of tissue for one mouse. The boxes represent the CFU data distribution, the first quartile, the median and the third quartile. Statistical differences (P<0.001) between CFU recovered from treated and untreated animals are shown by asterisks (non-parametric Kruskal-Wallis ANOVA with Dunn's post test).

Data set [4] concerns MRSA COL. The data set can be described thus: MIC by microdilution, alone or in combination, MRSA COL. Format: cell-based, Staphylococcus aureus. Conditions: agent used alone. The procedure:
(§1) Method. The minimal inhibitory concentrations (MICs), (i.e. lowest concentration of an antimicrobial that will inhibit the visible growth of a microorganism after incubation), of test compounds were determined against the normal or SCV strains of bacterial species from the Firmicutes phylum. Briefly, MICs were determined using the microdilution method in 96-well plates (Clinical and Laboratory Standards Institute (CLSI), 2011). Bacteria were inoculated at ˜10^5-10^6 CFU/mL and incubated at 35° C. for 20 h (normal strains) or 48 h (SCVs) in brain heart infusion (BHI) broth in order to allow SCVs to reach maximal growth as previously described (Mitchell et al., 2012). Then OD595 nm was read on a microplate reader. […] In this example the range of compound concentrations tested was 0.03 to 64 μg/ml using doubling increments. Strain Staphylococcus aureus NewbouldΔhemB (hemB) was also used in the experiments and is a laboratory-derived stable SCV created by the insertion of the macrolide resistance gene ermA in the hemB gene of this strain to create the SCV phenotype (defective electron transport chain and respiratory deficiency) through inactivation of hemin biosynthesis (Brouillette et al., 2004).
In the present Example the range of compound concentrations tested, using doubling increments, was 0.03 to 64 μg/ml for Compound 14 and up to 1024 μg/ml for gentamicin (GEN), kanamycin (KAN) and cefalexin (CEF) when these compounds were used alone. Compound 14 (Cpd 14) was used at a fixed concentration of 4 μg/ml when added to other antibiotics. The combination of CEF and KAN was used in a 3:2 ratio and doubling increments were used to test the antibacterial activity against MRSA in the absence or presence of Compound 14.

In data set [5] the test system is S. aureus hemB (SaR2). Kind of data set: MIC against tomatidine-resistant SCV mutant SaR2. Format: cell-based, Staphylococcus aureus. Here is the method: At each passage, using a microdilution method in 96-well microplates, S. aureus hemB was inoculated at ˜10^5-10^6 CFU/ml and incubated at 35° C. for 48 h. The range of tomatidine concentrations tested was 0.03 to 64 μg/ml using doubling increments. The concentration of gentamicin was fixed at 4 μg/mL when it was used in combination with tomatidine. At each passage, the minimal inhibitory concentrations (MICs) (i.e. lowest concentration of an antimicrobial that inhibits the visible growth of bacteria), of tomatidine was determined. The bacteria used as inoculum for the next passage were from the well preceeding the well showing the MIC (i.e. the well containing half the MIC). At each passage, the population of bacteria serving as the inoculum for the next passage was spread on BHI agar plates and three isolated colonies were collected and frozen until used for whole-genome sequencing.

In data set [6] the test system is Staphylococcus aureus ATCC 29213. The data set can be described thus: MIC by microdilution, compound alone or in combination with an aminoglycoside. Format: cell-based. Here is the method: as §1
The various antibacterial activities of the test compounds against Staphylococcus aureus ATCC 29213, alone or in combination with gentamicin, and alone against the SCV strain hemB are reported in Table 1.

[7] abbreviates: compound tested alone, strain NewbouldΔhemB.

Take “3-(N-aminoethyl)-aminotomatidine hydrochloride [Compound 14]”: the “solubility in DMSO” value worked out at 26 mg/mL. Also, in data set [1] (S. aureus hemB (SCV strain NewbouldΔhemB)), the MIC turned out to be 0.5 µg/mL. For the same substance, in data set [1] (setting [7]), the “Activity of the compounds against the SCV strain (class)” value is given as “Moderate (MIC = 0.5-4 μg/mL: moderate activity)” and the “MIC vs SCV” value is 0.5 to 1 µg/mL. The “effect in time-kill in combination with gentamicin” value in data set [2] (8 μg/ml with 2 μg/ml gentamicin) is recorded as “important bactericidal synergy”. The “effect on growth in time-kill (CFU)” value in data set [2] (used alone at 8 μg/ml) is recorded as “reduces the growth”. Besides, the “bacterial load in lungs (CFU per g of tissue)” value in data set [3] was “significantly reduce the bacterial load; also recorded: superior to tomatidine hydrochloride salt”. In addition, the MIC in data set [4] worked out at 16 µg/mL. Besides, the “Fold increase in resistance (MIC for mutant / MIC for NewbouldΔhemB)” value in data set [5] (mutant SaR2) was 8 fold. Besides, the MIC in data set [5] (tomatidine-resistant mutant SaR2) was 4 µg/mL. For the same substance, in data set [6] (MIC gentamicin alone / MIC gentamicin with compound at 4 μg/mL), the “potentiaton fold with gentamicin” value was 4-8 x. Moreover, the “potentiation / synergy with aminoglycoside (gentamicin) in words” value in data set [6] (S. aureus ATCC 29213) is recorded as “retain the ability to potentiate”. The “activity vs ATCC29213 in words” value in data set [6] (compound tested alone) is given as “Active”. In data set [6] (compound tested alone, hydrochloride), the “MIC vs ATCC29213” value is 8 to 16 µg/mL. For the same substance, the “potentiation activity with gentamicin in words” value in data set [6] (compound used at 4 μg/mL) is listed as “Moderate-high”. In addition, the “Combination MIC vs ATCC29213 (MIC of gentamicin in combination with the compound)” value in data set [6] (compound used at 4 μg/mL, MIC of gentamicin alone 0.5 μg/mL) is listed as 0.06-0.12.
